In patent US20210261621A1, “Preparation of Dilipid Polymixins and Use Thereof as Antimicrobial Adjuvants” (priority 2018, published 2021):
≈ marks a conversion by molar mass, not a printed value. Where two headings read alike, the source gives them in different places. Positions of bridges follow the written chain, without caps; N, C: chain ends. Non-standard residues stand in square brackets, D forms with d. Residues, ends and D or L forms follow the SMILES beside them. *: point of attachment. Acetyl(1-adamantyl) = O=C(CC12CC3CC(CC(C3)C1)C2)*; Benzoyl(4-Ph) = O=C(c1ccc(-c2ccccc2)cc1)*; Lauroyl = CCCCCCCCCCCC(=O)*; Octanoyl = CCCCCCCC(=O)*; Dab = NCC[C@H](N)C(=O)O; Butyryl = CCCC(=O)*

Experiments:
MRSE CAN-ICU 61589 = format: cell-based, S. epidermidis
From the text: (§1) Bacterial strains were either obtained from the American Type Culture Collection (ATCC), Canadian National Intensive Care Unit (CAN-ICU) surveillance study or the Canadian Ward Surveillance (CANWARD) study. Strains from both CAN-ICU and CANWARD are isolates recovered from patients diagnosed with a presumed infectious disease that were admitted in a participating medical center across Canada. Efflux-deficient strain PAO200 (lacking MexAB-OprM efflux system) and PA0750 (lacking MexAB-OprM, MexCD-OprJ, MexEF-OprN, MexJK and MexXY efflux systems, and the outer membrane protein OpmH) were kindly gifted by Dr. Ayush Kumar (University of Manitoba).
(§2) The in vitro antibacterial activity of the compounds studied were assessed by broth microdilution susceptibility testing following CLSI guidelines. Bacterial cultures were grown overnight prior to the assay. The overnight grown cultures were diluted in saline to 0.5 McFarland turbidity, followed by 1:50 dilution in Mueller-Hinton broth (MHB) for inoculation to a final concentration of approximately 5×10^5 colony forming units/mL. Testing was performed on 96-well plates where the tested compounds were 2-fold serially diluted in MHB and incubated with equal volumes of bacterial inoculum at 37° C. for 18 h. […] Wells containing MHB with or without bacterial cells were used as positive or negative control, respectively.

[1] = system: E. coli CANWARD-2011 97615; format: cell-based, Escherichia coli
How it was run: (§3)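 Susceptibility is determined by broth microdilution in Mueller-Hinton broth according to CLSI. Compounds are serially diluted 2-fold and challenged with about 5×10^5 CFU/mL bacteria for 18 h at 37° C.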

[2] = system: P. aeruginosa CANWARD-2011 96846; format: cell-based, Pseudomonas aeruginosa
How it was run: as §3

[3] = system: S. maltophilia CAN-ICU 62584; format: cell-based, Stenotrophomonas maltophilia
From the text: as §1, §2

A. baumannii 110193 = format: cell-based, Acinetobacter baumannii
How it was run: as §3

A. baumannii AB031 = format: cell-based, Acinetobacter baumannii
How it was run: as §3

A. baumannii ATCC 17978 = format: cell-based, Acinetobacter baumannii
How it was run: as §3

[4] = system: A. baumannii CAN-ICU 63169; format: cell-based, Acinetobacter baumannii
How it was run: as §3

K. pneumoniae 116381 = format: cell-based, Klebsiella pneumoniae
From the text: as §1, §2

K. pneumoniae ATCC 13883 = format: cell-based, Klebsiella pneumoniae
From the text: as §1, §2

E. cloacae 117029 = format: cell-based, Enterobacter cloacae
From the text: as §1, §2

P. aeruginosa PAO200 = settings: for MIC: P. aeruginosa PAO200, efflux-deficient strain that lacks the MexAB-OprM pump; for difference in MIC among the three P. aeruginosa strains tested: PAO1, PAO200, PAO750
From the text: (§4) To our curiosity, we explored whether efflux can affect the activity of polymyxins. It is widely accepted that polymyxins disrupt Gram-negative bacterial membranes that result to intracellular component leakage and bacterial cell death. However, for this to occur requires the agent to reach the periplasmic space to interact and disrupt the inner membrane. Active efflux may potentially expel polymyxins out of the periplasm, effectively reducing its periplasmic and intracellular concentrations. To study the effect of efflux on polymyxins in Gram-negative pathogens, we used P. aeruginosa as they inherently overexpress efflux systems such as MexAB-OprM, MexCD-OprJ and MexXY-OprM. Moreover, antibiotic substrates for these efflux systems are mostly characterized. We evaluated and compared the activity of the dilipid polymyxins, colistin and PMBN against wild-type PAO1 and two efflux-deficient P. aeruginosa isogenic mutants (Table 5). The strain PAO200 lacks the MexAB-OprM efflux system while strain PAO750 lacks five clinically-relevant pumps (MexAB-OprM, MexCD-OprJ, MexEF-OprN, MexJK and MexXY) and outer membrane protein OpmH.
as §1, §2

P. aeruginosa PAO750 = settings: P. aeruginosa PAO750, efflux-deficient strain that lacks five pumps and OpmH
From the text: as §4, §1, §2

[5] = MRSE CAN-ICU 61589 (methicillin-resistant S. epidermidis)

Experimental for pig erythrocytes: The ability of the compounds to lyse eukaryotic red blood cells was measured by the amount of hemoglobin released upon incubation with pig erythrocytes, following a published protocol [30]. Briefly, fresh pig blood (generously provided by Dr. Richard Hodges, Director of Animal Care and Veterinary Services of the University of Manitoba) drawn from a pig's antecubital vein was centrifuged at 1000 g for 5 min at 4° C., washed with phosphate-buffered saline (PBS) three times, and re-suspended in the same buffer, consecutively. Compounds at study were 2-fold serially diluted in PBS on a 96-well plate and mixed with equal volumes of erythrocyte solution. Post 1 h incubation at 37° C., the intact cells were pelleted by centrifugation at 1000 g for 5 min at 4° C. Resulting supernatant was then transferred to a new 96-well plate. The hemoglobin released was then measured via an EMax Plus microplate reader (Molecular Devices, USA) at 570 nm wavelength. Erythrocytes in PBS with or without 0.1% Triton X-100 were used as positive or negative control, respectively.

| Compound | MIC (MRSE CAN-ICU 61589; [5]) [µg/mL] | MIC [1] [µg/mL] | MIC [2] [µg/mL] | MIC ([3]; S. maltophilia CAN-ICU 62584) [µg/mL] | MIC (A. baumannii 110193; A. baumannii 110193) [µg/mL] | MIC (A. baumannii AB031; A. baumannii AB031) [µg/mL] | MIC (A. baumannii ATCC 17978; A. baumannii ATCC 17978) [µg/mL] | MIC ([4]; A. baumannii CAN-ICU 63169) [µg/mL] | MIC (K. pneumoniae 116381; K. pneumoniae 116381) [µg/mL] | MIC (K. pneumoniae ATCC 13883; K. pneumoniae ATCC 13883) [µg/mL] | MIC (E. cloacae 117029; E. cloacae 117029) [µg/mL] | MIC (P. aeruginosa PAO200) [µg/mL] | MIC (P. aeruginosa PAO750) [µg/mL] | MIC (MRSE CAN-ICU 61589; CAN-ICU 61589) [µg/mL] | MIC ([3]; CAN-ICU 62584) [µg/mL] | MIC (A. baumannii AB031; AB031) [µg/mL] | MIC ([4]; CAN-ICU 63169) [µg/mL] | MIC (E. cloacae 117029; 117029) [µg/mL] | difference in MIC among the three P. aeruginosa strains tested (P. aeruginosa PAO200) | % Hemolysis at 512 μg/mL of polymyxin (pig erythrocytes; red cells of pig, 1 h, 512) [%] | further results |
| --- | --- | --- | --- | --- | --- | --- | --- | --- | --- | --- | --- | --- | --- | --- | --- | --- | --- | --- | --- | --- | --- |
| CC(C)C[C@@H]1NC(=O)[C@@H](Cc2ccccc2)NC(=O)[C@H](CCN)NC(=O)[C@@H](NC(=O)[C@H](CCN)NC(=O)[C@@H](NC(=O)[C@H](CCNC(=O)c2ccc(-c3ccccc3)cc2)NC(=O)c2ccc(-c3ccccc3)cc2)[C@@H](C)O)CCNC(=O)[C@H]([C@@H](C)O)NC(=O)[C@H](CCN)NC(=O)[C@H](CCN)NC1=O [Compound 5, Dibiphenyl-4-Carboxylic Acid (Di-Biphenyl) Polymyxin] ({Benzoyl(4-Ph)}-[Dab](Benzoyl(4-Ph))T[Dab][Dab][Dab][dF]L[Dab][Dab]T; lactam 4-C) | 8 (≈ 5.62 µM) | 32 (≈ 22.5 µM) | 64 (≈ 45 µM) | 64 (≈ 45 µM) | 16 (≈ 11.2 µM) | 8 (≈ 5.62 µM) | 16 (≈ 11.2 µM) | 64 (≈ 45 µM) | >128 | >128 | 8 (≈ 5.62 µM) | 4 (≈ 2.81 µM) | 4 (≈ 2.81 µM) |  |  |  |  |  |  |  |  |
| CCCCCCCC(=O)NCC[C@H](NC(=O)CCCCCCC)C(=O)N[C@H](C(=O)N[C@@H](CCN)C(=O)N[C@H]1CCNC(=O)[C@H]([C@@H](C)O)NC(=O)[C@H](CCN)NC(=O)[C@H](CCN)NC(=O)[C@H](CC(C)C)NC(=O)[C@@H](Cc2ccccc2)NC(=O)[C@H](CCN)NC1=O)[C@@H](C)O [Compound 2, Dioctanoic Acid (Di-C8) Polymyxin] (Octanoyl-[Dab](Octanoyl)T[Dab][Dab][Dab][dF]L[Dab][Dab]T; lactam 4-C) |  | 64 (≈ 48.6 µM) | 8 (≈ 6.08 µM) |  |  |  |  |  |  |  |  | 2 (≈ 1.52 µM) | 2 (≈ 1.52 µM) | 16 (≈ 12.2 µM) | 32 (≈ 24.3 µM) | 8 (≈ 6.08 µM) | 64 (≈ 48.6 µM) | 2 (≈ 1.52 µM) | no difference |  | MIC (A. baumannii 110193; 110193): 16 µg/mL (≈ 12.2 µM); MIC (A. baumannii ATCC 17978; ATCC 17978): 32 µg/mL (≈ 24.3 µM); MIC (K. pneumoniae 116381; 116381): >128 µg/mL; MIC (K. pneumoniae ATCC 13883; ATCC 13883): >128 µg/mL; % Hemolysis at 512 μg/mL of polymyxin (pig erythrocytes): 6.2% |
| CC(C)C[C@@H]1NC(=O)[C@@H](Cc2ccccc2)NC(=O)[C@H](CCN)NC(=O)[C@@H](NC(=O)[C@H](CCN)NC(=O)[C@@H](NC(=O)[C@H](CCNC(=O)CC23CC4CC(CC(C4)C2)C3)NC(=O)CC23CC4CC(CC(C4)C2)C3)[C@@H](C)O)CCNC(=O)[C@H]([C@@H](C)O)NC(=O)[C@H](CCN)NC(=O)[C@H](CCN)NC1=O [Compound 4, Diadamantane Acetic Acid (Di-Adamantyl) Polymyxin] ({Acetyl(1-adamantyl)}-[Dab](Acetyl(1-adamantyl))T[Dab][Dab][Dab][dF]L[Dab][Dab]T; lactam 4-C) | 16 (≈ 11.3 µM) | 64 (≈ 45.2 µM) | 32 (≈ 22.6 µM) | 64 (≈ 45.2 µM) | 32 (≈ 22.6 µM) | 16 (≈ 11.3 µM) | 32 (≈ 22.6 µM) | 128 (≈ 90.4 µM) | >128 | >128 | 4 (≈ 2.83 µM) | 4 (≈ 2.83 µM) | 8 (≈ 5.65 µM) |  |  |  |  |  |  | 3.2 ± 0.4 |  |
| colistin [reference compound] | 128 |  |  | 64 | 0.25 | 0.25 | 0.25 | 32 | 1 | ≤0.25 | 0.125 | 0.5 | 0.5 |  |  |  |  |  | no difference |  |  |
| CCCC(=O)NCC[C@H](NC(=O)CCC)C(=O)N[C@H](C(=O)N[C@@H](CCN)C(=O)N[C@H]1CCNC(=O)[C@H]([C@@H](C)O)NC(=O)[C@H](CCN)NC(=O)[C@H](CCN)NC(=O)[C@H](CC(C)C)NC(=O)[C@@H](Cc2ccccc2)NC(=O)[C@H](CCN)NC1=O)[C@@H](C)O [Compound 1, Dibutyric Acid (Di-C4) Polymyxin] (Butyryl-[Dab](Butyryl)T[Dab][Dab][Dab][dF]L[Dab][Dab]T; lactam 4-C) | >128 | >128 | >128 | >128 | >128 | >128 | >128 | >128 | >128 | >128 |  | 4 (≈ 3.32 µM) | 8 (≈ 6.65 µM) |  |  |  |  | 64 (≈ 53.2 µM) |  | 1.1 ± 1.6 | fold difference in MIC against wild-type PAO1 and efflux-deficient PAO200 (P. aeruginosa PAO200; PAO1 versus PAO200 (lacks MexAB-OprM)): 32 fold |
| CCCCCCCCCCCC(=O)NCC[C@H](NC(=O)CCCCCCCCCCC)C(=O)N[C@H](C(=O)N[C@@H](CCN)C(=O)N[C@H]1CCNC(=O)[C@H]([C@@H](C)O)NC(=O)[C@H](CCN)NC(=O)[C@H](CCN)NC(=O)[C@H](CC(C)C)NC(=O)[C@@H](Cc2ccccc2)NC(=O)[C@H](CCN)NC1=O)[C@@H](C)O [Compound 3, Didodecanoic Acid (Di-C12) Polymyxin] (Lauroyl-[Dab](Lauroyl)T[Dab][Dab][Dab][dF]L[Dab][Dab]T; lactam 4-C) |  | 64 (≈ 44.8 µM) | >128 |  | >128 |  | >128 |  | >128 | >128 |  | 32 (≈ 22.4 µM) | 32 (≈ 22.4 µM) | 64 (≈ 44.8 µM) | 128 (≈ 89.6 µM) | 64 (≈ 44.8 µM) | 128 (≈ 89.6 µM) | 16 (≈ 11.2 µM) |  | 49.7 ± 3.3 |  |
